“And” between values parts separate entries of the source, which are not always exact repeats. Equal entries are not always repeated.
Molecular target: Protein Wnt-3a (Mus musculus, UniProt P27467)
Assay: Dual-Cell beta-Catenin Reporter Assay
Description: Mouse L cells transfected to constitutively produce biologically active murine Wnt-3a, referred to as L-Wnt cells, were purchased from the American Type Culture Collection, ATCC, Manassas, Va. (ATCC). These cells were cultured in DMEM supplemented with 10% FCS (Gibco/Invitrogen, Carlsbad, Calif.), 1% geneticin and 1% sodium pyruvate (Sigma) at 37° C. with 5% CO2. The cells were seeded into 96 well plates and treated with serial dilutions of compound diluted to 0.1% DMSO concentration. After 24 hours, cell supernatants were transferred to a 96 well plate previously seeded with Leading Light Wnt Reporter Cells, stably transfected with a luciferase gene under control of Wnt pathway response elements. After a further 24 hours, cells are treated with One-glo luciferase assay system (Promega, Madison, Wis.) and the luminescent signal read by envision.

Sequence of Protein Wnt-3a (P27467 whole entry): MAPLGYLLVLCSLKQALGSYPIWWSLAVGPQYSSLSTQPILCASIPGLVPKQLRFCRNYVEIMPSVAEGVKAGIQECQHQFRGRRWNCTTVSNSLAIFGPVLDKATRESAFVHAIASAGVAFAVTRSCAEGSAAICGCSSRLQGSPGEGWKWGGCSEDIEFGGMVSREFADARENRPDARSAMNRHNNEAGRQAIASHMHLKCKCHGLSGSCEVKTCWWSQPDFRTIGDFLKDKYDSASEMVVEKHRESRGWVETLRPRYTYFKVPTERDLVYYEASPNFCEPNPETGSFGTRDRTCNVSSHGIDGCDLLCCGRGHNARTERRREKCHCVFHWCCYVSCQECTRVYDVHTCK

| IC50 | SMILES |
| --- | --- |
| < 1 nM and 0.32 nM | Cc1cc(-c2nc(C)nc3c2ccn3CC(=O)Nc2ccc(-c3cnccn3)cn2)ccn1 [US10202375, Example 10] |
| 3 nM | Cc1cc(-c2nccc3c2ncn3CC(=O)Nc2ccc(-c3cnccn3)cn2)ccn1 [US10202375, Example 20] |
| 3 nM | Cc1cc(-c2ccnc3c2cnn3CC(=O)Nc2ccc(-c3cnccn3)nc2)ccn1 [US10202375, Example 15] |

— BindingDB's records for patent US10202375 (Redx Pharma PLC, 2019)
